Results on 8 compounds are retold here after patent publication US10004786B2 (Zealand Pharma A/S, priority 2009, dated 2018).

The structures appear in SMILES notation. Numbered stars: 1 amine (or outer) side, 2 acyl side, 3 side chain; on linkers, the order of the positions; unused ones are H or OH. Bridge positions count the residues as written; N and C are the ends. Square brackets hold non-standard residues; d marks the D form. Side chains are listed from the residue outwards. Peptide text beside a SMILES is read from it. * marks the point of attachment. γGlu = O=C(O)[C@H](CCC(=O)[*:2])N[*:1]; Palmitoyl = CCCCCCCCCCCCCCCC(=O)*; Aib = CC(C)(N)C(=O)O

A short description of data set [1]: Body weight gain in high fat fed C57BL/6J mice (10 days). The class given is in vivo. Conditions: short term high fat-fed C57BL/6J mice; for body weight gain, high dose: 5 nmol/kg b.i.d. s.c. As to the method: C57Bl/6J male mice, 6 weeks old, were acclimatized in their new environment for 4 weeks with free access to high fat diet (HFD) (D12492, Research Diet Inc., New Brunswick, USA) and water. The animals were injected s.c. with 100 μl vehicle for a period of three days to acclimatize the animals to handling and injections, prior to initiation of peptide treatment. […] Throughout the study, body weights were recorded daily and used to administer the body weight-corrected doses of peptide. All animals were sacrificed on the same day by cervical dislocation.
C57Bl/6J male mice on high fat diet (HFD) were treated (b.i.d.; s.c.) (0.5 and 5 nmol/kg) or vehicle. Body weights were recorded daily and used to administer the body weight-corrected doses of peptide throughout the study. Data are shown as mean±SEM in FIG. 7.

Data set [2] in a line: Pharmacokinetic screening in mouse plasma after subcutaneous administration. The class given is in vivo. The settings on record: sc, mice, 100 nmol/kg s.c., * = only two time points used for calculation. The method, then:
Mice were dosed 100 nmol/kg subcutaneously (s.c.). The mice were sacrificed and the blood collected at the following time points; 0.5, 2, 4, 6, 16 and 24 h. Plasma samples were analyzed using protein precipitation, followed by solid phase extraction (SPE) and liquid chromatography mass spectrometry (LC-MS).
Pharmacokinetic profiles were determined for various acylated compounds.

`CCCCCCCCCCCCCCCC(=O)N[C@@H](CCC(=O)NCCCC[C@H](NC(=O)[C@H](CO)NC(=O)[C@H](CC(=O)O)NC(=O)[C@H](CC(C)C)NC(=O)[C@H](Cc1ccc(O)cc1)NC(=O)[C@H](CCCCN)NC(=O)[C@H](CO)NC(=O)[C@H](Cc1ccc(O)cc1)NC(=O)[C@H](CC(=O)O)NC(=O)[C@H](CO)NC(=O)[C@@H](NC(=O)[C@H](Cc1ccccc1)NC(=O)[C@@H](NC(=O)CNC(=O)[C@H](CCC(N)=O)NC(=O)[C@H](CO)NC(=O)[C@@H](N)Cc1c[nH]cn1)[C@@H](C)O)[C@@H](C)O)C(=O)N[C@@H](C)C(=O)N[C@@H](C)C(=O)N[C@@H](Cc1c[nH]cn1)C(=O)N[C@@H](CC(=O)O)C(=O)N[C@@H](Cc1ccccc1)C(=O)N[C@H](C(=O)N[C@@H](CCC(=O)O)C(=O)N[C@@H](Cc1c[nH]c2ccccc12)C(=O)N[C@@H](CC(C)C)C(=O)N[C@@H](CC(C)C)C(=O)N[C@@H](CCCNC(=N)N)C(=O)N[C@@H](C)C(N)=O)C(C)C)C(=O)O` [Compound 3] (H-HSQGTFTSDYSKYLDSK([γGlu-Palmitoyl])AAHDFVEWLLRA-NH2): the “body weight gain, high dose” value in data set [1] is reported as “significantly decreased body weight gain at the high dose”. Broadly, the half-life is how long it takes for the measured level to halve. For the compound `CCCCCCCCCCCCCCCC(=O)N[C@@H](CCC(=O)NCCCC[C@H](NC(=O)[C@H](CC(=O)O)NC(=O)[C@H](CC(C)C)NC(=O)[C@H](Cc1ccc(O)cc1)NC(=O)[C@H](CCCCN)NC(=O)[C@H](CO)NC(=O)[C@H](Cc1ccc(O)cc1)NC(=O)[C@H](CC(=O)O)NC(=O)[C@H](CO)NC(=O)[C@@H](NC(=O)[C@H](Cc1ccccc1)NC(=O)[C@@H](NC(=O)CNC(=O)[C@H](CCC(N)=O)NC(=O)[C@H](CO)NC(=O)[C@@H](N)Cc1c[nH]cn1)[C@@H](C)O)[C@@H](C)O)C(=O)N[C@@H](CCCCN)C(=O)N[C@@H](C)C(=O)N[C@@H](C)C(=O)N[C@@H](Cc1c[nH]cn1)C(=O)N[C@@H](CC(=O)O)C(=O)N[C@@H](Cc1ccccc1)C(=O)N[C@H](C(=O)N[C@@H](CCC(=O)O)C(=O)N[C@@H](Cc1c[nH]c2ccccc12)C(=O)N[C@@H](CC(C)C)C(=O)N[C@@H](CC(C)C)C(=O)N[C@@H](CCCNC(=N)N)C(=O)N[C@@H](C)C(N)=O)C(C)C)C(=O)O` [Compound 2] (H-HSQGTFTSDYSKYLDK([γGlu-Palmitoyl])KAAHDFVEWLLRA-NH2), the half-life in data set [2] is 348 min. For `CCCCCCCCCCCCCCCC(=O)N[C@@H](CCC(=O)NCCCC[C@H](NC(=O)[C@H](CC(C)C)NC(=O)[C@H](Cc1c[nH]c2ccccc12)NC(=O)[C@H](CCC(=O)O)NC(=O)[C@@H](NC(=O)[C@H](Cc1ccccc1)NC(=O)[C@H](CC(=O)O)NC(=O)[C@H](Cc1c[nH]cn1)NC(=O)[C@H](C)NC(=O)[C@H](C)NC(=O)[C@H](CCCCN)NC(=O)[C@H](CO)NC(=O)[C@H](CC(=O)O)NC(=O)[C@H](CC(C)C)NC(=O)[C@H](Cc1ccc(O)cc1)NC(=O)[C@H](CCCCN)NC(=O)[C@H](CO)NC(=O)[C@H](Cc1ccc(O)cc1)NC(=O)[C@H](CC(=O)O)NC(=O)[C@H](CO)NC(=O)[C@@H](NC(=O)[C@H](Cc1ccccc1)NC(=O)[C@@H](NC(=O)CNC(=O)[C@H](CCC(N)=O)NC(=O)[C@H](CO)NC(=O)[C@@H](N)Cc1c[nH]cn1)[C@@H](C)O)[C@@H](C)O)C(C)C)C(=O)N[C@@H](CCCNC(=N)N)C(=O)N[C@@H](C)C(N)=O)C(=O)O` [Compound 5] (H-HSQGTFTSDYSKYLDSKAAHDFVEWLK([γGlu-Palmitoyl])RA-NH2), in data set [2], the half-life is 318 min.

Take `CCCCCCCCCCCCCCCC(=O)N[C@@H](CCC(=O)NCCCC[C@H](NC(=O)[C@H](CC(C)C)NC(=O)[C@H](CC(C)C)NC(=O)[C@H](Cc1c[nH]c2ccccc12)NC(=O)[C@H](CCC(=O)O)NC(=O)[C@@H](NC(=O)[C@H](Cc1ccccc1)NC(=O)[C@H](CC(=O)O)NC(=O)[C@H](Cc1c[nH]cn1)NC(=O)[C@H](C)NC(=O)[C@H](C)NC(=O)[C@H](CCCCN)NC(=O)[C@H](CO)NC(=O)[C@H](CC(=O)O)NC(=O)[C@H](CC(C)C)NC(=O)[C@H](Cc1ccc(O)cc1)NC(=O)[C@H](CCCCN)NC(=O)[C@H](CO)NC(=O)[C@H](Cc1ccc(O)cc1)NC(=O)[C@H](CC(=O)O)NC(=O)[C@H](CO)NC(=O)[C@@H](NC(=O)[C@H](Cc1ccccc1)NC(=O)[C@@H](NC(=O)CNC(=O)[C@H](CCC(N)=O)NC(=O)[C@H](CO)NC(=O)[C@@H](N)Cc1c[nH]cn1)[C@@H](C)O)[C@@H](C)O)C(C)C)C(=O)N[C@@H](C)C(N)=O)C(=O)O` [Compound 6] (H-HSQGTFTSDYSKYLDSKAAHDFVEWLLK([γGlu-Palmitoyl])A-NH2): the half-life in data set [2] is 288 min. The “body weight gain, low dose” value in data set [1] (0.5 nmol/kg b.i.d. s.c.) was “significantly decreased body weight gain”. In data set [1], the “body weight gain, high dose” value was “only at the low dose”. As to `CCCCCCCCCCCCCCCC(=O)N[C@@H](CCC(=O)NCCCC[C@H](NC(=O)[C@H](CC(C)C)NC(=O)[C@H](CC(C)C)NC(=O)[C@H](Cc1c[nH]c2ccccc12)NC(=O)[C@H](CCC(=O)O)NC(=O)[C@@H](NC(=O)[C@H](Cc1ccccc1)NC(=O)[C@H](CC(=O)O)NC(=O)[C@H](Cc1c[nH]cn1)NC(=O)[C@H](C)NC(=O)[C@H](C)NC(=O)[C@H](CCCCN)NC(=O)[C@H](CO)NC(=O)[C@H](CC(=O)O)NC(=O)[C@H](CC(C)C)NC(=O)[C@H](Cc1ccc(O)cc1)NC(=O)[C@H](CCCCN)NC(=O)[C@H](CO)NC(=O)[C@H](Cc1ccc(O)cc1)NC(=O)[C@H](CC(=O)O)NC(=O)[C@H](CO)NC(=O)[C@@H](NC(=O)[C@H](Cc1ccccc1)NC(=O)[C@@H](NC(=O)CNC(=O)[C@H](CCC(N)=O)NC(=O)C(C)(C)NC(=O)[C@@H](N)Cc1c[nH]cn1)[C@@H](C)O)[C@@H](C)O)C(C)C)C(=O)N[C@@H](C)C(N)=O)C(=O)O` [Compound 12] (H-H[Aib]QGTFTSDYSKYLDSKAAHDFVEWLLK([γGlu-Palmitoyl])A-NH2), in data set [2], the half-life is 360 min. For the same compound, in data set [1], the “body weight gain, high dose” value is reported as “significantly decreased body weight gain at the high dose”. Consider `CCCCCCCCCCCCCCCC(=O)N[C@@H](CCC(=O)NCCCC[C@H](NC(=O)[C@H](C)NC(=O)[C@H](C)NC(=O)[C@H](CCCCN)NC(=O)[C@H](CO)NC(=O)[C@H](CC(=O)O)NC(=O)[C@H](CC(C)C)NC(=O)[C@H](Cc1ccc(O)cc1)NC(=O)[C@H](CCCCN)NC(=O)[C@H](CO)NC(=O)[C@H](Cc1ccc(O)cc1)NC(=O)[C@H](CC(=O)O)NC(=O)[C@H](CO)NC(=O)[C@@H](NC(=O)[C@H](Cc1ccccc1)NC(=O)[C@@H](NC(=O)CNC(=O)[C@H](CCC(N)=O)NC(=O)[C@H](CO)NC(=O)[C@@H](N)Cc1c[nH]cn1)[C@@H](C)O)[C@@H](C)O)C(=O)N[C@@H](CC(=O)O)C(=O)N[C@@H](Cc1ccccc1)C(=O)N[C@H](C(=O)N[C@@H](CCC(=O)O)C(=O)N[C@@H](Cc1c[nH]c2ccccc12)C(=O)N[C@@H](CC(C)C)C(=O)N[C@@H](CC(C)C)C(=O)N[C@@H](CCCNC(=N)N)C(=O)N[C@@H](C)C(N)=O)C(C)C)C(=O)O` [Compound 4] (H-HSQGTFTSDYSKYLDSKAAK([γGlu-Palmitoyl])DFVEWLLRA-NH2), for which, in data set [2], the half-life is 120 min.

Regarding `CCCCCCCCCCCCCCCC(=O)N[C@@H](CCC(=O)NCCCC[C@H](NC(=O)[C@H](CO)NC(=O)[C@H](CC(=O)O)NC(=O)[C@H](CC(C)C)NC(=O)[C@H](Cc1ccc(O)cc1)NC(=O)[C@H](CCCCN)NC(=O)[C@H](CO)NC(=O)[C@H](Cc1ccc(O)cc1)NC(=O)[C@H](CC(=O)O)NC(=O)[C@H](CO)NC(=O)[C@@H](NC(=O)[C@H](Cc1ccccc1)NC(=O)[C@@H](NC(=O)CNC(=O)[C@H](CCC(N)=O)NC(=O)C(C)(C)NC(=O)[C@@H](N)Cc1c[nH]cn1)[C@@H](C)O)[C@@H](C)O)C(=O)N[C@@H](C)C(=O)N[C@@H](C)C(=O)N[C@@H](CCCNC(=N)N)C(=O)N[C@@H](CC(=O)O)C(=O)N[C@@H](Cc1ccccc1)C(=O)N[C@H](C(=O)N[C@@H](C)C(=O)N[C@@H](Cc1c[nH]c2ccccc12)C(=O)N[C@@H](CC(C)C)C(=O)N[C@@H](CC(C)C)C(=O)N[C@@H](CCCNC(=N)N)C(=O)N[C@@H](C)C(N)=O)C(C)C)C(=O)O` [Compound 9] (H-H[Aib]QGTFTSDYSKYLDSK([γGlu-Palmitoyl])AARDFVAWLLRA-NH2), in data set [2], the half-life is 144 min. For the compound `CCCCCCCCCCCCCCCC(=O)N[C@@H](CCC(=O)NCCCC[C@H](NC(=O)[C@H](CO)NC(=O)[C@H](CC(=O)O)NC(=O)[C@H](CC(C)C)NC(=O)[C@H](Cc1ccc(O)cc1)NC(=O)[C@H](CCCCN)NC(=O)[C@H](CO)NC(=O)[C@H](Cc1ccc(O)cc1)NC(=O)[C@H](CC(=O)O)NC(=O)[C@H](CO)NC(=O)[C@@H](NC(=O)[C@H](Cc1ccccc1)NC(=O)[C@@H](NC(=O)CNC(=O)[C@H](CCC(N)=O)NC(=O)C(C)(C)NC(=O)[C@@H](N)Cc1c[nH]cn1)[C@@H](C)O)[C@@H](C)O)C(=O)N[C@@H](C)C(=O)N[C@@H](C)C(=O)N[C@@H](Cc1c[nH]cn1)C(=O)N[C@@H](CC(=O)O)C(=O)N[C@@H](Cc1ccccc1)C(=O)N[C@H](C(=O)N[C@H]1CCC(=O)NCCCC[C@@H](C(=O)N[C@@H](C)C(N)=O)NC(=O)[C@H](CC(C)C)NC(=O)[C@H](CC(C)C)NC(=O)[C@H](Cc2c[nH]c3ccccc23)NC1=O)C(C)C)C(=O)O` [Compound 13] (H-H[Aib]QGTFTSDYSKYLDSK([γGlu-Palmitoyl])AAHDFVEWLLKA-NH2; lactam 24-28), the half-life in data set [2] was 384 min.
